These results are taken from patent publication US10702495B2, “Method and compositions for treating dystrophies and myotonia” (priority 2017, dated 2020).

The structures appear in SMILES notation.

The test system of one series is patients with myotonia. The series is described as follows: Disease history: previous treatments for myotonia and myalgia (case reports). The settings on record: for effect of previous treatment on myotonia, patient 6: CLCN1-congenital myotonia; for effect of previous treatment on myotonia, patient 6 / outcome of previous treatment of myotonia, patient 2 / outcome of previous treatment of myalgia, patient 2: disease history; for outcome of previous treatment of myotonia, patient 2 / outcome of previous treatment of myalgia, patient 2: DM2. The text has this: This person was diagnosed with DM2. As DM2-related comorbidities they have diabetes mellitus type 2 without diabetic neuropathy, and controlled paroxysmal atrial fibrillation. Their main muscular complaints have always been a severe grip myotonia and myotonia of the legs while walking, as well as persistent myalgia especially at lower back. In the last several years they developed a proximal and axial muscle weakness (MRC grade 4). […] After discussing potential risks and benefits, a compassionate use with low dose CBD/THC has been started.
This person was diagnosed with CLCN1-congenital myotonia. They have a severe therapy-resistant grip and generalized myotonia.

The test system of a further series is dystrophic mdx mice. As to conditions: injection; mostly via activation of TRPV1 and TRPA1; cited from earlier work.

For the molecule `O=C(NCC1CCCCN1)c1cc(OCC(F)(F)F)ccc1OCC(F)(F)F` (stereo not shown) [flecainid], in the series with patients with myotonia, the “effect of previous treatment on myotonia, patient 6” value (“effect … on myotonia, patient 6” below) is reported as “no relevant improvement of myotonia was obtained”.

Turning to `C=C(C)[C@@H]1CCC(C)=C[C@H]1c1c(O)cc(CCCCC)cc1O` [CBD, Cannabidiol], in the series on dystrophic mdx mice, the “myotube formation and inflammation” value was “promoted myotube formation and reduced inflammation”.

For `Cc1ccc(C(=O)C(C)CN2CCCCC2)cc1` (stereo not shown) [tolperisone], the “effect … on myotonia, patient 6” value with patients with myotonia is reported as “no relevant improvement of myotonia was obtained”.

`NC(=O)N1c2ccccc2C=Cc2ccccc21` [carbamazepine]: in the series on patients with myotonia, the “effect … on myotonia, patient 6” value is “no relevant improvement of myotonia was obtained”; the “outcome of previous treatment of myotonia, patient 2” value (“outcome … of myotonia, patient 2” for short) was “suspended due to inefficacy and risk of cardiac arrhythmias”.

As to `CC(C)Cc1ccc(C(C)C(=O)O)cc1` (stereo not shown) [ibuprofen], the “outcome of previous treatment of myalgia, patient 2” value (“outcome … of myalgia, patient 2” for short) in the series on patients with myotonia is recorded as “unsuccessfully treated”.

Consider `COc1ccccc1OCC(O)COC(N)=O` (stereo not shown) [methocarbamol], for which the “outcome … of myalgia, patient 2” value in the series on patients with myotonia is listed as “unsuccessfully treated”.

Consider `Cc1cccc(C)c1OCC(C)N` (stereo not shown) [mexiletine], for which, in the series with patients with myotonia, the “effect … on myotonia, patient 6” value is reported as “improved the myotonia”; the “outcome … of myotonia, patient 2” value was “suspended due to inefficacy and risk of cardiac arrhythmias”. In the series on patients with myotonia (resolved on drug discontinuation), the “drug-related side effect of previous treatment, patient 6” value is reported as “severe major depression”.

Regarding `Nc1nnc(-c2cccc(Cl)c2Cl)c(N)n1` [lamotrigine], in the series with patients with myotonia, the “effect … on myotonia, patient 6” value is recorded as “no relevant improvement of myotonia was obtained”.

As for `CC(C)C[C@H](CN)CC(=O)O` [pregabalin], in the series with patients with myotonia, the “outcome … of myalgia, patient 2” value is “unsuccessfully treated”; the “outcome … of myotonia, patient 2” value was “suspended due to inefficacy and risk of cardiac arrhythmias”.
